According to EPA's ToxValDB 9.5 (doi:10.2903/j.efsa.2009.184r):

Assays:
[1] = test system: Aphidius rhopalosiphi; test: LR50; higher = less toxic; details: not reported; mortality
[2] = test system: Anas platyrhynchos; details: oral, mortality
[3] = test system: Apis mellifera; details: acute; duration: 48 hours; oral; unspecified; mortality
[4] = test system: Daphnia magna; details: chronic/long-term; duration: 21 days
[5] = test system: Rattus norvegicus
[6] = test system: Bibionidae; details: chronic/long-term; duration: 28 days
[7] = test system: Mus musculus; details: chronic; duration: 18 months; histopathology: nonneoplastic
[8] = test system: Oncorhynchus mykiss; details: chronic/long-term; duration: 28 days; growth
[9] = test system: Tagia sp.; details: acute; duration: 14 days; mortality
[10] = test system: Colinus virginianus; details: acute, oral, mortality
[11] = test system: Lepomis macrochirus; details: acute; duration: 96 hours; mortality

Compound `O=C(NC(=O)c1c(F)cccc1F)Nc1cc(Cl)c(F)c(Cl)c1F` [Teflubenzuron] has an LR50 [1] greater than 180 g/ha, an LD50 ([2]; acute, unspecified) greater than 2000 mg/kg-day and an LD50 ([2]; short-term, feed) greater than 1210 mg/kg-day. It also gave an LD50 [3] greater than 72 µg/piece, an NOEC [4] of 6.2e-05 mg/L and an LD50 ([5]; acute, oral, mortality) greater than 5000 mg/kg-day. The NOAEL ([5]; chronic) was 40 mg/kg-day, the NOAEL ([5]; subchronic, duration: 90 days, oral, clinical chemistry) was 8 mg/kg-day and the NOEC [6] was 0.05 mg/kg. For the same compound, the LOAEL [7] was 2.1 mg/kg-day, the NOEC [8] was 0.0186 mg/L and the LC50 [9] was greater than 1000 mg/kg. The LD50 ([10]; diet) was greater than 1010 mg/kg-day, the LD50 [10] was greater than 2250 mg/kg-day and the LC50 [11] was greater than 6.5 ng/mL.
